Assay results: ChEMBL document CHEMBL5260834, “Benzomorphan skeleton, a versatile scaffold for different targets: A comprehensive review” (Eur J Med Chem, 2018)

Key:
[1] = target: T1, Sigma non-opioid intracellular receptor 1 (Cavia porcellus, UniProt Q60492); assay: Displacement of [3H]-(+)-pentazocine from sigma1 receptor in guinea pig brain membrane assessed as inhibition constant; format: cell membranes
[2] = Ratio of Ki for displacement of [3H]-(+)-pentazocine from sigma1 receptor in guinea pig brain membrane assessed as inhibition constant to Ki for displacement of [3H]-(+)-pentazocine from sigma1 receptor in guinea pig brain membrane assessed as inhibition constant; format: cell membranes; parameters: reference not given here
[3] = target: T2, Sigma intracellular receptor 2 (Rattus norvegicus, UniProt Q5U3Y7); assay: Displacement of [3H]DTG from sigma 2 receptor in rat liver membranes assessed as inhibition constant presence of dextrallorphan; format: cell membranes, Membrane
T2 sequence (Q5U3Y7 whole entry): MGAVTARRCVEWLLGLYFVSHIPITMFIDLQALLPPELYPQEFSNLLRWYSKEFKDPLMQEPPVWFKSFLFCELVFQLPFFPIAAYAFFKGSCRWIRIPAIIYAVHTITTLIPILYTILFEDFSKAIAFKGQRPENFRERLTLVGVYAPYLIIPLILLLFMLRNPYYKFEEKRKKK

[4] = target: T3, Sigma intracellular receptor 2 (Homo sapiens, UniProt Q5BJF2); assay: Displacement of [3H]DTG from sigma 2 receptor (unknown origin) assessed as inhibition constant incubated for 120 mins in presence of (+)-SKF10047 by radioligand binding assay
Mu-type opioid receptor [5] = target: Mu-type opioid receptor (Rattus norvegicus, UniProt P33535); assay: Displacement of [ 3H]-naloxone from rat brain membrane mu opioid receptor assessed as inhibition constant by radioligand binding assay; format: cell membranes
[6] = target: T1, Sigma non-opioid intracellular receptor 1; assay: Displacement of [3H]-(+)-pentazocine from sigma1 receptor in guinea pig brain membrane assessed as inhibition constant measured for 150 mins in presence of haloperidol; format: cell membranes
[7] = Displacement of 3[H]BTX from rat cerebral cortex sodium channel assessed as inhibition constant; format: tissue-based
Mus musculus [8] = assay: Anticonvulsant activity in mouse assessed as protection against maximal electroshock seizures […] by maximum electroshock seizure test; format: functional
[9] = target: Glutathione hydrolase 1 proenzyme (Homo sapiens, UniProt P19440); assay: Inhibition of human GGT1
[10] = target: T4, Sigma non-opioid intracellular receptor 1 (Homo sapiens, UniProt Q99720); assay: Agonist activity at sigma1 receptor (unknown origin); conditions: filed as agonist
[11] = target: T4, Sigma non-opioid intracellular receptor 1; assay: Displacement of [3H]-(+)-pentazocine from sigma1 receptor (unknown origin) assessed as inhibition constant
[12] = target: T5, Kappa-type opioid receptor (Homo sapiens, UniProt P41145); assay: Displacement of [3H]-diprenorphine from KOR receptor (unknown origin) assessed as inhibition constant in presence of D-Ala-N-MePhe-Gly-ol-enkephalin and D-Ala-DLeu-enkephalin
[13] = target: T3, Sigma intracellular receptor 2; assay: Displacement of [3H]DTG from sigma 2 receptor (unknown origin) assessed as inhibition constant in presence of (+)-SKF10047 by radioligand binding assay
[14] = target: T5, Kappa-type opioid receptor; assay: Displacement of [3H]-U69593 from KOR receptor (unknown origin) assessed as inhibition constant
[15] = target: Delta-type opioid receptor (Homo sapiens, UniProt P41143); assay: Displacement of [3H]-Diprenorphine from DOR receptor (unknown origin) assessed as inhibition constant
Mu-type opioid receptor [16] = target: T6, Mu-type opioid receptor (Homo sapiens, UniProt P35372); assay: Displacement of [3H]-Diprenorphine from MOR receptor (unknown origin) assessed as inhibition constant
[17] = target: T1, Sigma non-opioid intracellular receptor 1; assay: Displacement of [3H]-(+)-pentazocine from sigma1 receptor in guinea pig brain membrane assessed as inhibition constant measured for 150 mins; format: cell membranes
[18] = Ratio of Ki for displacement of [3H]DTG from sigma 2 receptor (unknown origin) assessed as inhibition constant in presence of haloperidol to Ki for displacement of [3H]-(+)-pentazocine from sigma1 receptor in guinea pig brain membrane assessed as inhibition constant; format: cell membranes
[19] = target: T3, Sigma intracellular receptor 2; assay: Displacement of [3H]DTG from sigma 2 receptor (unknown origin) assessed as inhibition constant in presence of haloperidol measured for 120 mins by scintillation counting analysis
[20] = target: T3, Sigma intracellular receptor 2
Description: Inhibition of sigma 2 receptor (unknown origin)

[21] = target: T2, Sigma intracellular receptor 2; assay: Displacement of [3H]DTG from sigma 2 receptor in rat liver membranes assessed as inhibition constant presence of haloperidol by scintillation counting analysis; format: cell membranes, Membrane
[22] = Ratio of Ki for displacement of [3H]DTG from sigma 2 receptor in rat liver membranes assessed as inhibition constant presence of haloperidol by scintillation counting analysis to Ki for displacement of [3H]-(+)-pentazocine from sigma 1 receptor in guinea pig brain membrane assessed as inhibition constant in presence of haloperidol; format: cell membranes
[23] = target: T1, Sigma non-opioid intracellular receptor 1; assay: Displacement of [3H]-(+)-pentazocine from sigma1 receptor in guinea pig brain membrane assessed as inhibition constant measured after 120 mins by scintillation counting method; format: cell membranes
[24] = Toxicity in mouse assessed as induction of lethality; conditions: in vivo
[25] = Half life in mouse; format: ADME, organism-based; conditions: in vivo
[26] = target: Glutamate [NMDA] receptor; assay: Antagonist activity at NMDA receptor (unknown origin) assessed as inhibition constant; format: protein-complex assay, Homo sapiens
[27] = target: T4, Sigma non-opioid intracellular receptor 1; assay: Inhibition of sigma 1 receptor (unknown origin)
Mus musculus [28] = assay: Anticonvulsant activity in mouse assessed as protection against maximal electroshock seizures at 5 mg/kg, sc by maximum electroshock seizure test; format: functional; conditions: read-out: ID50 (the source's name)
[29] = target: T3, Sigma intracellular receptor 2; assay: Displacement of [3H]DTG from sigma 2 receptor (unknown origin) assessed as inhibition constant
Mu-type opioid receptor [30] = target: T6, Mu-type opioid receptor; assay: Displacement of [3H]-DAMGO from human MOR receptor assessed as inhibition constant by cheng-prusoff equation assay
[31] = Ratio of Ki for displacement of[3H]-DAMGO from human MOR receptor to Ki for displacement of [3H]-(+)-pentazocine from sigma1 receptor in guinea pig brain membrane; format: cell membranes
[32] = Ratio of Ki for displacement of [3H]DTG from sigma 2 receptor (unknown origin) to Ki for displacement of [3H]-(+)-pentazocine from sigma1 receptor in guinea pig brain membrane; format: cell membranes

T6 sequence (P35372 whole entry): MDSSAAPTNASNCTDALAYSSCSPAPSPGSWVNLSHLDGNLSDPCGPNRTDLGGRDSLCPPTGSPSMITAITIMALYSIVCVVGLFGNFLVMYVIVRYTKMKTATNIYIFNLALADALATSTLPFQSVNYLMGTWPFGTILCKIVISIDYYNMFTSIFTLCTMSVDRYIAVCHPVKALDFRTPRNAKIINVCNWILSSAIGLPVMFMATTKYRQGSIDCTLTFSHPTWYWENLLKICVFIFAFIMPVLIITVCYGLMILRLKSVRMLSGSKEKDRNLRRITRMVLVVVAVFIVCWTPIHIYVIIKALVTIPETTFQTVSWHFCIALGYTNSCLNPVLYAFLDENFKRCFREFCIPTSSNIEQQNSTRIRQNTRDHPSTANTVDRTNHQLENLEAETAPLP
Mu-type opioid receptor (Rattus norvegicus, UniProt P33535), sequence (P33535 whole entry): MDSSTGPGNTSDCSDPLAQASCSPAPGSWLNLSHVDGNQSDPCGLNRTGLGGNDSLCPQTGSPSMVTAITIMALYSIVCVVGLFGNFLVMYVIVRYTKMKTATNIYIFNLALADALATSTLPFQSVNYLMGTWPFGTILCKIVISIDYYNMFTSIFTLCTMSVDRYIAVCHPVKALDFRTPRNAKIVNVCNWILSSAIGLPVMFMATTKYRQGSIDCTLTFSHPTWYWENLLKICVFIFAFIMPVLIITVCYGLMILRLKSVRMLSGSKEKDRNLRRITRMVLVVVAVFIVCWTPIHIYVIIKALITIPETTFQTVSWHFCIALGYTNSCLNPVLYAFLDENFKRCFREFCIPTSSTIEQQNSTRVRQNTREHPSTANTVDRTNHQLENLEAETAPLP
T1 sequence (Q60492 whole entry): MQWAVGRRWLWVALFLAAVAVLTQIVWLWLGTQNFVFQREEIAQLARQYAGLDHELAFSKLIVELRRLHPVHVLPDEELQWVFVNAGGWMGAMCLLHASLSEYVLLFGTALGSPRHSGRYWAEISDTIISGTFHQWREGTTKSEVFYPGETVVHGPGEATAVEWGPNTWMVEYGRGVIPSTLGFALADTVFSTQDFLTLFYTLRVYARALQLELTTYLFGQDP
T4 sequence (Q99720 whole entry): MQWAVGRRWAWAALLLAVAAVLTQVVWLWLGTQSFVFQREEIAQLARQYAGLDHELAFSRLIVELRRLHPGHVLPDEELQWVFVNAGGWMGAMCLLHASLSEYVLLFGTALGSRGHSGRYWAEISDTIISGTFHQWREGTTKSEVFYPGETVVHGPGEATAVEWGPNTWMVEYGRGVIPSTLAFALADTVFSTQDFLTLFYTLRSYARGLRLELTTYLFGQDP
T5 sequence (P41145 whole entry): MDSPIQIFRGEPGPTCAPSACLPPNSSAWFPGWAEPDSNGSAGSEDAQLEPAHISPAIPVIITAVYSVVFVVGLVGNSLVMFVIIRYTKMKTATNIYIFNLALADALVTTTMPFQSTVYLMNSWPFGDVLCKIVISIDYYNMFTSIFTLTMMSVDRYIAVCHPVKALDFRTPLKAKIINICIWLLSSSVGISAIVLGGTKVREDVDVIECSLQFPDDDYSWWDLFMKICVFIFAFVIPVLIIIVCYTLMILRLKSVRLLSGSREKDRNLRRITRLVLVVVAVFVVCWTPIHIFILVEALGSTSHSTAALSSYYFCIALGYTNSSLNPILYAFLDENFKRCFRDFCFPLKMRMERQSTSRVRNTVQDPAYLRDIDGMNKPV
T3 sequence (Q5BJF2 whole entry): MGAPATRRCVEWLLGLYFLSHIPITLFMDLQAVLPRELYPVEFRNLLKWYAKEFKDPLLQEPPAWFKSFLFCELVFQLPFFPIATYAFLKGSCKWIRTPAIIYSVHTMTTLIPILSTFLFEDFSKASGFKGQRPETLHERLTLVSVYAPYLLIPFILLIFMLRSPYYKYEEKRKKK
Delta-type opioid receptor, sequence (P41143 whole entry): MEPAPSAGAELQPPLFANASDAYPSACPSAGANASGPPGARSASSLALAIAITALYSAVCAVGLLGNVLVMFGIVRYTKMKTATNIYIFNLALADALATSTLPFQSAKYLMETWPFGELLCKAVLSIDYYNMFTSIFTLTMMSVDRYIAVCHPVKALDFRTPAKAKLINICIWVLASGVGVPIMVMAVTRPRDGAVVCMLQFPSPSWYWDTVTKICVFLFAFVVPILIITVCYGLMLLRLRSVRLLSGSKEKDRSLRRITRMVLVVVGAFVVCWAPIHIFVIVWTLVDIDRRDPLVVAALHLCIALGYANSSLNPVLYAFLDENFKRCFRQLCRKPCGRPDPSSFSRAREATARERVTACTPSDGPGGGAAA
Glutathione hydrolase 1 proenzyme, sequence (P19440 1-380 limits assumed): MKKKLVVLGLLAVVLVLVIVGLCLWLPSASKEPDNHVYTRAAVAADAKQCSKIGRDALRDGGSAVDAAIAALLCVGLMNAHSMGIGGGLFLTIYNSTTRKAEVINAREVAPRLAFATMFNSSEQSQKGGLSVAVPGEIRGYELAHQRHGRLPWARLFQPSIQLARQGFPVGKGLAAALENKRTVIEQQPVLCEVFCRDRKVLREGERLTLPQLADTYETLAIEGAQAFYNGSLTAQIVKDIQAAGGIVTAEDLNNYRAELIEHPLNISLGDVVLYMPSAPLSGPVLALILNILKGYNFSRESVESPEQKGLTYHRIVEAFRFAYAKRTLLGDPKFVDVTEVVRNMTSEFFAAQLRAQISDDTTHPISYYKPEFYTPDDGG
Glutathione hydrolase 1 proenzyme, sequence (P19440 381-569 limits assumed): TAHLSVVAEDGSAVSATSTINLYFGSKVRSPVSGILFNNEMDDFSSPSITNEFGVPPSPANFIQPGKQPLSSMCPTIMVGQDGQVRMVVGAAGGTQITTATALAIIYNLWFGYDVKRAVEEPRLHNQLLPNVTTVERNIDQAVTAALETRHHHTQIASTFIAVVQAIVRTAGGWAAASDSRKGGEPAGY

C[C@@H]1[C@@H]2Cc3ccc(O)c(Br)c3[C@]1(C)CCN2Cc1ccccc1
Ki [1]: 1.75 nM | Ratio Ki [2]: 200 | Ki [3]: 346 nM

C[C@@H]1[C@@H]2Cc3ccc(O)cc3[C@]1(C)CCN2CCN1CCCCCC1
Ki [4]: 151 nM | Ki (Mu-type opioid receptor [5]): 9130 nM | Ki [6]: 20.1 nM

C[C@@H]1[C@@H]2Cc3ccc(O)c(Cl)c3[C@]1(C)CCN2Cc1ccccc1
Ki [1]: 1.72 nM | Ratio Ki [2]: 440 | Ki [3]: 764 nM

CO[C@@H](C)CN1CC[C@@]2(C)c3cccc(O)c3C[C@@H]1C2(C)C
Ki [7]: 789 nM | ED50 (Mus musculus [8]): 1 mg/kg | IC50 [9]: 39 nM

C[C@@H]1[C@@H]2Cc3ccc(O)cc3[C@]1(C)CCN2CCN1CCCCC1
Ki [4]: 114 nM | Ki (Mu-type opioid receptor [5]): 12000 nM | Ki [6]: 9.6 nM | ED50 [10]: 0.88 mg/kg

C[C@@H]1[C@@H]2Cc3ccccc3[C@]1(C)CCN2CCN1CCCC1
Ki [11]: 34 nM | Ki [12]: 6400 nM | Ki [13]: 42 nM

COC(=O)[C@]1(c2ccccc2)C[C@@H]1CN1CC[C@@]2(C)c3cc(O)ccc3C[C@H]1[C@H]2C
Ki [11]: 66.7 nM | Ki [14]: > 1000 nM | Ki [15]: > 1000 nM | Ki (Mu-type opioid receptor [16]): > 25000 nM

C[C@@H]1[C@@H]2Cc3ccc(N)cc3[C@]1(C)CCN2Cc1ccccc1
Ki [17]: 1.47 nM | Ratio Ki [18]: 570 | Ki [19]: 832 nM

CC(C)=CCN1CC[C@@]2(C)c3c(ccc(O)c3Cl)C[C@H]1[C@H]2C
Ki [1]: 2.62 nM | Ki [3]: 4960 nM

C/C=C/CN1CCN(c2ccc3c(c2)[C@H]2C[C@@H]3CCN2C(=O)OCc2ccccc2)CC1
Ki [20]: 16 nM

C[C@@H]1[C@@H]2Cc3ccc(O)cc3[C@]1(C)CCN2CCN(C)c1ccccc1
Ki [4]: 124 nM | Ki (Mu-type opioid receptor [5]): 28.8 nM | Ki [6]: 5.6 nM

COC(=O)[C@@]1(c2ccccc2)C[C@H]1CN1CC[C@@]2(C)c3cc(O)ccc3C[C@H]1[C@H]2C
Ki [11]: 75 nM | Ki [14]: > 1000 nM | Ki [15]: > 1000 nM | Ki (Mu-type opioid receptor [16]): > 1000 nM

CC(C)[C@@H]1[C@@H]2CCN(Cc3ccccc3)[C@@H]1Cc1ccccc12
Ki [21]: 133 nM | Ki [6]: 31.7 nM | Ratio Ki [22]: 4

CC(C)=CCN1CC[C@@]2(C)c3cc(O)ccc3C[C@H]1[C@H]2C
Ki (Mu-type opioid receptor [5]): 2370 nM

C[C@@H]1[C@@H]2Cc3ccc(O)cc3[C@]1(C)CCN2CCN1CCOCC1
Ki [4]: 300 nM | Ki (Mu-type opioid receptor [5]): 8170 nM | Ki [6]: 13.4 nM | ED50 [10]: 0.82 mg/kg

C[C@@H]1[C@@H]2Cc3ccc(O)cc3[C@]1(C)CCN2CCN1CCCC1
Ki [4]: 260 nM | Ki (Mu-type opioid receptor [5]): 3800 nM | Ki [6]: 7.4 nM

C[C@@H]1[C@@H]2Cc3ccc(N(C)C)cc3[C@]1(C)CCN2Cc1ccccc1
Ki [17]: 1.75 nM | Ratio Ki [18]: 150 | Ki [19]: 258 nM

C[C@@H]1[C@@H]2Cc3cc(I)c(O)cc3[C@]1(C)CCN2Cc1ccccc1
Ki [1]: 231 nM | Ki [3]: 597 nM

C[C@@H]1[C@@H]2Cc3ccc(O)cc3[C@]1(C)CCN2Cc1ccc(F)cc1
Ki [23]: 1.45 nM

C[C@@H]1[C@@H]2Cc3ccccc3[C@]1(C)CCN2CCNc1ccccc1
Ki [11]: 21 nM | Ki [12]: 6500 nM | Ki [13]: 144 nM

CC[C@@H]1[C@@H]2CCN(Cc3ccccc3)[C@@H]1Cc1ccccc12
Ki [21]: 115 nM | Ki [6]: 3.36 nM | Ratio Ki [22]: 34

C[C@@H]1[C@@H]2CCN(Cc3ccccc3)[C@@H]1Cc1ccccc12
Ki [21]: 131 nM | Ki [6]: 0.96 nM | Ratio Ki [22]: 136

CO[C@H](C)CN1CC[C@@]2(C)c3ccc(O)cc3C[C@@H]1C2(C)C
LD50 [24]: 0.4 mg/kg | half-life [25]: 4 h | Ki [26]: 4.5 nM

CC(C)=CCN1CC[C@@]2(C)c3c(ccc(O)c3Br)C[C@H]1[C@H]2C
Ki [1]: 2.49 nM | Ki [3]: 283 nM

C[C@@H]1[C@@H]2Cc3ccc(O)cc3[C@]1(C)CCN2CCNc1ccccc1
Ki [4]: 111 nM | Ki (Mu-type opioid receptor [5]): 79.8 nM | Ki [6]: 5.9 nM

CC(C)=CCN1CCN(c2ccc3c(c2)[C@H]2C[C@@H]3CCN2C(=O)OCc2ccccc2)CC1
Ki [20]: 23 nM

C[C@@H]1[C@@H]2Cc3ccccc3[C@]1(C)CCN2CCN1CCCCC1
Ki [11]: 20 nM | Ki [12]: > 10000 nM | Ki [13]: 130 nM

C=CCCCN1CC[C@]2(C)c3cc(O)ccc3C[C@@H]1[C@@H]2C
Ki [27]: 180 nM

C=CCCN1CC[C@]2(C)c3cc(O)ccc3C[C@@H]1[C@@H]2C
Ki [27]: 620 nM

C=CCN1CC[C@]2(C)c3cc(O)ccc3C[C@@H]1[C@@H]2C
Ki [27]: 3200 nM

COC(=O)[C@]1(c2ccc(Cl)cc2)C[C@@H]1CN1CC[C@]2(C)c3cc(O)ccc3C[C@@H]1[C@@H]2C
Ki [11]: 1050 nM | Ki [14]: 0.41 nM | Ki [15]: > 25000 nM | Ki (Mu-type opioid receptor [16]): > 25000 nM

COC(=O)C1(c2ccccc2)CC1CN1CC[C@@]2(C)c3cc(O)ccc3C[C@H]1[C@H]2C (mixture of isomers)
Ki [11]: 1380 nM | Ki [14]: > 1000 nM | Ki [15]: > 1000 nM | Ki (Mu-type opioid receptor [16]): > 1000 nM

COC(=O)[C@]1(c2ccccc2)C[C@@H]1CN1CC[C@]2(C)c3cc(O)ccc3C[C@@H]1[C@@H]2C
Ki [14]: 240 nM | Ki [15]: > 25000 nM | Ki (Mu-type opioid receptor [16]): > 25000 nM

C[C@@H](CN1CC[C@@]2(C)c3cccc(O)c3C[C@@H]1C2(C)C)OCc1ccccc1 [CROBENETINE]
ED50 (Mus musculus [28]): 6.1 mg/kg | Ki [7]: 43 nM | IC50 [9]: 322 nM

C=CCCCCN1CC[C@]2(C)c3cc(O)ccc3C[C@@H]1[C@@H]2C
Ki [27]: 80 nM

C[C@@H]1[C@@H]2Cc3ccccc3[C@]1(C)CCN2CCN(C)c1ccccc1
Ki [11]: 91 nM | Ki [12]: > 10000 nM | Ki [13]: 157 nM

CC(C)=CCN1CC[C@@]2(C)c3cc(F)ccc3C[C@H]1[C@H]2C
Ki [17]: 1.48 nM | Ratio Ki [18]: 104 | Ki [19]: 154 nM

C[C@@H]1[C@@H]2Cc3ccc(O)cc3[C@]1(C)CCN2Cc1ccccc1
Ki [29]: 1710 nM | Ki (Mu-type opioid receptor [30]): 1610 nM | Ratio Ki [31]: 2400 | Ki [23]: 0.67 nM | Ratio Ki [32]: 2600

C=CCN1CC[C@@]2(C)c3cc(O)ccc3C[C@H]1[C@H]2C
Ki [11]: 169 nM | Ki [14]: > 1000 nM | Ki (Mu-type opioid receptor [30]): > 10000 nM | Ki [15]: > 1000 nM | Ki (Mu-type opioid receptor [16]): > 1000 nM

C[C@@H]1[C@@H]2Cc3ccc(O)cc3[C@]1(C)CCN2Cc1ccccc1F
Ki [23]: 0.97 nM
